Results as given in paper PMC10247784, “Physiological activation of human and mouse bitter taste receptors by bile acids” (Communications Biology, 2023).
Where “and” joins values, the source holds several entries; their conditions need not be identical. Equal entries are not always repeated.

Biological target: T1, human TAS2R4 (Homo sapiens, UniProt Q9NYW5)
T1 construct: expressed in transfected cells; host or cells: HEK293T-Gα16gust44
T1 sequence (Q9NYW5 1-299): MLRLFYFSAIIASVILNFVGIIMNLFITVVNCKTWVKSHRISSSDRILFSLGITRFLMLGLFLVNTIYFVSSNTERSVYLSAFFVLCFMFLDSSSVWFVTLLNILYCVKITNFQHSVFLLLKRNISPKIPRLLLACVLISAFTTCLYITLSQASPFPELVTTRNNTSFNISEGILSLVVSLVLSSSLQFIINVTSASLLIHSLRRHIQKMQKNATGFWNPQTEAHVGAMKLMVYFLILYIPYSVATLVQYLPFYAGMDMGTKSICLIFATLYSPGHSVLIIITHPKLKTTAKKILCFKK
Assay: Calcium imaging assay (FLIPR), HEK293T-Gα16gust44 cells transfected with human TAS2R4
Format: cell-based
Method in brief: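 HEK293T-Gα16gust44 cells transiently transfected with the bitter-taste receptor, loaded next day with Fluo-4-AM plus 2.5 mM probenecid, and challenged with bile acids on FLIPR Tetra. Signals mock-subtracted, expressed as ΔF/F vs buffer.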

C[C@H](CCC(=O)O)[C@H]1CC[C@H]2[C@@H]3[C@@H](O)C[C@@H]4C[C@H](O)CC[C@]4(C)[C@H]3CC[C@]12C [Ursodeoxycholic Acid, ursodeoxycholic acid]
Efficacy = maximal amplitude (ΔF/F) (TAS2R4, bile acids, mean): 0.07236
Efficacy (maximal amplitude ΔF/F), individual data points (TAS2R4, bile acids, single replicates, listed as UDCA): 0.07954 and 0.05089 and 0.08665
Δ F/F (TAS2R4, conc. 0,01 mM): 0.05163
Δ F/F (TAS2R4, conc. 0,03 mM): 0.07236
Δ F/F (TAS2R4, conc. 0,00003 mM): 0.00102
Δ F/F (TAS2R4, conc. 0,0001 mM): 0.006537
Δ F/F (TAS2R4, conc. 0,0003 mM): -0.0004307
Δ F/F (TAS2R4, conc. 0,001 mM): 0.008217
Δ F/F (TAS2R4, conc. 0,003 mM): 0.01726
RLU, fluorescence trace (Time (s) 0): 0 RLU
RLU, fluorescence trace (Time (s) 2): -16.0588 RLU
RLU, fluorescence trace (Time (s) 4): 1.8572 RLU
RLU, fluorescence trace (Time (s) 6): -24.0432 RLU
RLU, fluorescence trace (Time (s) 8): -15.0627 RLU
RLU, fluorescence trace (Time (s) 12): -11.1029 RLU
RLU, fluorescence trace (Time (s) 14): -16.031 RLU
RLU, fluorescence trace (Time (s) 16): -22.0279 RLU
RLU, fluorescence trace (Time (s) 18): -16.0557 RLU
RLU, fluorescence trace (Time (s) 18.766 (TCA, TLCA: 18.782)): -31 RLU
RLU, fluorescence trace (Time (s) 20.781 (TCA, TLCA: 20.782)): -77.5296 RLU
RLU, fluorescence trace (Time (s) 22.781 (TCA, TLCA: 22.782)): -20.8274 RLU
RLU, fluorescence trace (Time (s) 24.781 (TCA, TLCA: 24.782)): 13.5346 RLU
RLU, fluorescence trace (Time (s) 26.781 (TCA, TLCA: 26.782)): 47.9642 RLU
RLU, fluorescence trace (Time (s) 28.781 (TCA, TLCA: 28.782)): 73.9776 RLU
RLU, fluorescence trace (Time (s) 30.781 (TCA, TLCA: 30.782)): 141.824 RLU
RLU, fluorescence trace (Time (s) 32.781 (TCA, TLCA: 32.782)): 170.961 RLU
RLU, fluorescence trace (Time (s) 34.781 (TCA, TLCA: 34.782)): 211.304 RLU
RLU, fluorescence trace (Time (s) 36.781 (TCA, TLCA: 36.782)): 286.431 RLU
RLU, fluorescence trace (Time (s) 38.781 (TCA, TLCA: 38.782)): 316.3 RLU
RLU, fluorescence trace (Time (s) 40.781 (TCA, TLCA: 40.782)): 327.594 RLU
RLU, fluorescence trace (Time (s) 42.781 (TCA, TLCA: 42.782)): 352.031 RLU
RLU, fluorescence trace (Time (s) 44.781 (TCA, TLCA: 44.782)): 380.127 RLU
RLU, fluorescence trace (Time (s) 46.781 (TCA, TLCA: 46.782)): 405.893 RLU
RLU, fluorescence trace (Time (s) 48.781 (TCA, TLCA: 48.782)): 396.948 RLU
RLU, fluorescence trace (Time (s) 50.781 (TCA, TLCA: 50.782)): 411.019 RLU
RLU, fluorescence trace (Time (s) 52.781 (TCA, TLCA: 52.782)): 398.089 RLU
RLU, fluorescence trace (Time (s) 54.781 (TCA, TLCA: 54.782)): 413.206 RLU
RLU, fluorescence trace (Time (s) 56.781 (TCA, TLCA: 56.782)): 434.735 RLU
RLU, fluorescence trace (Time (s) 58.781 (TCA, TLCA: 58.782)): 418.956 RLU
RLU, fluorescence trace (Time (s) 60.781 (TCA, TLCA: 60.782)): 389 RLU
RLU, fluorescence trace (Time (s) 62.781 (TCA, TLCA: 62.782)): 407.272 RLU
RLU, fluorescence trace (Time (s) 64.781 (TCA, TLCA: 64.782)): 410.187 RLU
RLU, fluorescence trace (Time (s) 66.781 (TCA, TLCA: 66.782)): 395 RLU
RLU, fluorescence trace (Time (s) 68.781 (TCA, TLCA: 68.782)): 396.708 RLU
RLU, fluorescence trace (Time (s) 70.781 (TCA, TLCA: 70.782)): 394.232 RLU
RLU, fluorescence trace (Time (s) 72.781 (TCA, TLCA: 72.782)): 389.174 RLU
RLU, fluorescence trace (Time (s) 74.781 (TCA, TLCA: 74.782)): 367.247 RLU
RLU, fluorescence trace (Time (s) 76.781 (TCA, TLCA: 76.782)): 368.083 RLU
RLU, fluorescence trace (Time (s) 78.781 (TCA, TLCA: 78.782)): 368.91 RLU
RLU, fluorescence trace (Time (s) 80.781 (TCA, TLCA: 80.782)): 354 RLU
RLU, fluorescence trace (Time (s) 82.781 (TCA, TLCA: 82.782)): 345.234 RLU
RLU, fluorescence trace (Time (s) 84.781 (TCA, TLCA: 84.782)): 349.472 RLU
RLU, fluorescence trace (Time (s) 86.781 (TCA, TLCA: 86.782)): 337.61 RLU
RLU, fluorescence trace (Time (s) 88.781 (TCA, TLCA: 88.782)): 322.366 RLU
RLU, fluorescence trace (Time (s) 90.781 (TCA, TLCA: 90.782)): 310.929 RLU
RLU, fluorescence trace (Time (s) 92.781 (TCA, TLCA: 92.782)): 320.728 RLU
RLU, fluorescence trace (Time (s) 94.781 (TCA, TLCA: 94.782)): 299.044 RLU
RLU, fluorescence trace (Time (s) 96.781 (TCA, TLCA: 96.782)): 305.557 RLU
RLU, fluorescence trace (Time (s) 98.781 (TCA, TLCA: 98.782)): 298.819 RLU
RLU, fluorescence trace (Time (s) 100.781 (TCA, TLCA: 100.782)): 293.739 RLU
RLU, fluorescence trace (Time (s) 102.781 (TCA, TLCA: 102.782)): 282.259 RLU
RLU, fluorescence trace (Time (s) 104.781 (TCA, TLCA: 104.782)): 266.754 RLU
RLU, fluorescence trace (Time (s) 106.781 (TCA, TLCA: 106.782)): 276.382 RLU
RLU, fluorescence trace (Time (s) 108.781 (TCA, TLCA: 108.782)): 259.159 RLU
RLU, fluorescence trace (Time (s) 110.781 (TCA, TLCA: 110.782)): 276.445 RLU
RLU, fluorescence trace (Time (s) 112.781 (TCA, TLCA: 112.782)): 267.37 RLU
RLU, fluorescence trace (Time (s) 114.781 (TCA, TLCA: 114.782)): 253.353 RLU
RLU, fluorescence trace (Time (s) 116.781 (TCA, TLCA: 116.782)): 251.234 RLU
RLU, fluorescence trace (Time (s) 118.781 (TCA, TLCA: 118.782)): 253.766 RLU
RLU, fluorescence trace (Time (s) 120.781 (TCA, TLCA: 120.782)): 230.621 RLU
RLU, fluorescence trace (Time (s) 122.781 (TCA, TLCA: 122.782)): 238.721 RLU
RLU, fluorescence trace (Time (s) 124.781 (TCA, TLCA: 124.782)): 218.638 RLU
RLU, fluorescence trace (Time (s) 126.781 (TCA, TLCA: 126.782)): 215.286 RLU
RLU, fluorescence trace (Time (s) 128.781 (TCA, TLCA: 128.782)): 226.16 RLU
RLU, fluorescence trace (Time (s) 130.781 (TCA, TLCA: 130.782)): 229.593 RLU
RLU, fluorescence trace (Time (s) 132.781 (TCA, TLCA: 132.782)): 216.307 RLU
RLU, fluorescence trace (Time (s) 134.781 (TCA, TLCA: 134.782)): 209.298 RLU
RLU, fluorescence trace (Time (s) 136.781 (TCA, TLCA: 136.782)): 214.712 RLU
RLU, fluorescence trace (Time (s) 137.547): 211.548 RLU
RLU, fluorescence trace (Time (s) 143.547): 195.123 RLU
RLU, fluorescence trace (Time (s) 149.547): 191.876 RLU
RLU, fluorescence trace (Time (s) 155.547): 182.53 RLU
RLU, fluorescence trace (Time (s) 161.547): 172.093 RLU
RLU, fluorescence trace (Time (s) 167.547): 173.823 RLU
RLU, fluorescence trace (Time (s) 173.547): 178.999 RLU
RLU, fluorescence trace (Time (s) 179.547): 149.456 RLU
RLU, fluorescence trace (Time (s) 185.547): 128.186 RLU
RLU, fluorescence trace (Time (s) 191.547): 150.92 RLU
RLU, fluorescence trace (Time (s) 197.547): 155.041 RLU
RLU, fluorescence trace (Time (s) 203.547): 152.046 RLU
RLU, fluorescence trace (Time (s) 209.547): 155.822 RLU
RLU, fluorescence trace (Time (s) 215.547): 146.722 RLU
RLU, fluorescence trace (Time (s) 221.547): 144.396 RLU
RLU, fluorescence trace (Time (s) 227.547): 187.605 RLU
RLU, fluorescence trace (Time (s) 233.547): 160.672 RLU
RLU, fluorescence trace (Time (s) 239.547): 166.203 RLU
RLU, fluorescence trace (Time (s) 245.547): 147.048 RLU
RLU, fluorescence trace (Time (s) 293.547): 162.322 RLU
RLU, fluorescence trace (Time (s) 299.547): 130.446 RLU
RLU, fluorescence trace (Time (s) 305.547): 132.691 RLU
RLU, fluorescence trace (Time (s) 311.547): 138.907 RLU
RLU, fluorescence trace (Time (s) 317.547): 111.452 RLU
RLU, fluorescence trace (Time (s) 323.547): 135.942 RLU
RLU, fluorescence trace (Time (s) 329.547): 131.935 RLU
RLU, fluorescence trace (Time (s) 335.547): 149.888 RLU
RLU, fluorescence trace (Time (s) 341.547): 132.356 RLU
RLU, fluorescence trace (Time (s) 347.547): 117.981 RLU
RLU, fluorescence trace (Time (s) 353.547): 135.981 RLU
RLU, fluorescence trace (Time (s) 359.547): 144.823 RLU
Activation threshold concentration TAS2R4 (lowest concentration with significantly increased fluorescence vs empty vector (p < 0.01)): 3 µM
